Source: US7795261B2, “Substituted 1-piperidin-4-yl-4-pyrrolidin-3-yl-piperazine derivatives and their use as neurokinin antagonists” (Janssen Pharmaceutica NV, priority 2002, dated 2010)

target: NK1 (Homo sapiens, UniProt P25103); assay: Signal transduction (ST), intracellular Ca++ (FLIPR), NK1 antagonistic activity; assay type: cell-based; settings: read-out: pIC50 NK1 (converted)
Experimental: This test evaluates in vitro functional NK1 antagonistic activity. For the measurements of intracellular Ca^++ concentrations the cells were grown on 96-well (black wall/transparent bottom) plates from Costar for 2 days until they reached confluence. The cells were loaded with 2 μM Fluo3 in DMEM containing 0.1% BSA and 2.5 mM probenecid for 1 h at 37° C. They were washed 3× with a Krebs buffer (140 mM NaCl, 1 mM MgCl2×6H2O, 5 mM KCl, 10 mM glucose, 5 mM HEPES; 1.25 mM CaCl2; pH 7.4) containing 2.5 mM probenecid and 0.1% BSA (Ca^++-buffer). The cells were preincubated with a concentration range of antagonists for 20 min at RT and Ca^++-signals after addition of the agonists were measured in a Fluorescence Image Plate Reader (FLIPR from Molecular Devices, Crawley, England). The peak of the Ca^++-transient was considered as the relevant signal and the mean values of corresponding wells were analysed as described below.
The sigmoidal dose response curves were analysed by computerised curve-fitting, using the GraphPad Program. […] For antagonist responses the IC50-value was calculated using non-linear regression. […]

Chain of NK1 (P25103 whole entry): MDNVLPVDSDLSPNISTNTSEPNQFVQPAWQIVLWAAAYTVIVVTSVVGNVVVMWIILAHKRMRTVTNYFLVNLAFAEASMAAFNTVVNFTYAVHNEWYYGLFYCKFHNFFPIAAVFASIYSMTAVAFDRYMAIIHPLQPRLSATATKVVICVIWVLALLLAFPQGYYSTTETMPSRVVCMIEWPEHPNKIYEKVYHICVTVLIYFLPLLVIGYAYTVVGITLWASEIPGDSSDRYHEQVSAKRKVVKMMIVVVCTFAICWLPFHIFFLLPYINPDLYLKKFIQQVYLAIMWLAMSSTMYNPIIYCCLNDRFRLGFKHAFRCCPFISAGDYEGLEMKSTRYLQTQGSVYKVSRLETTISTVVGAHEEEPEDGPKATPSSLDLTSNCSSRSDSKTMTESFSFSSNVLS

Compared with `O=C(C1CCOC1)N1CCC(N2CCN(C3CCN(C(=O)c4cc(C(F)(F)F)cc(C(F)(F)F)c4)C(Cc4ccccc4)C3)CC2)C1` (single isomer, unassigned) [Compound 129], `O=C(C1CCNC1)N1CCC(N2CCN([C@H]3CCN(C(=O)c4cc(C(F)(F)F)cc(C(F)(F)F)c4)[C@H](Cc4ccccc4)C3)CC2)C1` (stereo partly shown) [Compound 235] is 6.3-fold lower in IC50: 251 nM for the first, 39.8 nM for the second.

`O=C(c1cc(C(F)(F)F)cc(C(F)(F)F)c1)N1CCC(N2CCN(C3CCNC3)CC2)CC1Cc1ccc(F)c(F)c1` (single isomer, unassigned) [Compound 212] and `O=C(c1cc(C(F)(F)F)cc(C(F)(F)F)c1)N1CCC(N2CCN(C3CCNC3)CC2)CC1Cc1ccccc1` (stereo not shown) [Compound 2] are within 1.5-fold of each other in IC50: 50.1 nM for the first, 63.1 nM for the second.

Compared with `O=C(c1cc(C(F)(F)F)cc(C(F)(F)F)c1)N1CCC(N2CCN(C3CCNC3)CC2)CC1Cc1ccc(F)c(F)c1` (single isomer, unassigned) [Compound 225], `O=C(c1cc(C(F)(F)F)cc(C(F)(F)F)c1)N1CC[C@H](N2CCN(C3CCNC3)CC2)C[C@@H]1Cc1ccccc1` (stereo partly shown) [Compound 118] is 8-fold higher in IC50: 15.8 nM for the first, 126 nM for the second.

First: CC(C)(C)OC(=O)N1CCC(N2CCN(C3CCN(C(=O)c4cc(C(F)(F)F)cc(C(F)(F)F)c4)C(Cc4ccc(Cl)c(Cl)c4)C3)CC2)C1 (single isomer, unassigned) [Compound 243]
Second: Cc1nccn1CC(=O)N1CCC(N2CCN(C3CCN(C(=O)c4cc(C(F)(F)F)cc(C(F)(F)F)c4)C(Cc4ccccc4)C3)CC2)C1 (stereo not shown) [Compound 209]
The IC50 of the first is 10-fold higher: 200 nM for the first, 20 nM for the second.

Compared with `O=C(c1cc(C(F)(F)F)cc(C(F)(F)F)c1)N1CCC(N2CCN(C3CCN(Cc4ccccc4)C3)CC2)CC1Cc1ccccc1` (stereo not shown) [Compound 1], `O=C(c1ccccc1)N1CCC(N2CCN([C@@H]3CCN(C(=O)c4cc(C(F)(F)F)cc(C(F)(F)F)c4)[C@H](Cc4ccccc4)C3)CC2)C1` (stereo partly shown) [Compound 136] is 2-fold higher in IC50: 100 nM for the first, 200 nM for the second.

`COC(=O)CCN1CCC(N2CCN(C3CCN(C(=O)c4cc(C(F)(F)F)cc(C(F)(F)F)c4)C(Cc4ccccc4)C3)CC2)C1` (stereo not shown) [Compound 80] and `O=C([C@@H]1CCCN1)N1CCC(N2CCN([C@H]3CCN(C(=O)c4cc(C(F)(F)F)cc(C(F)(F)F)c4)[C@H](Cc4ccccc4)C3)CC2)C1` (stereo partly shown) [Compound 144] are within 1.5-fold of each other in IC50: 100 nM for the first, 126 nM for the second.

Going from `Cc1cc(C)cc(C(=O)N2CC[C@H](N3CCN(C4CCN(C(=O)c5ccoc5)C4)CC3)C[C@H]2Cc2ccccc2)c1` (stereo partly shown) [Compound 85] to `O=C(CN1CCCC1)N1CCC(N2CCN(C3CCN(C(=O)c4cc(C(F)(F)F)cc(C(F)(F)F)c4)C(Cc4ccccc4)C3)CC2)C1` (stereo not shown) [Compound 196], the IC50 falls from 31.6 nM to 20 nM (1.6-fold).

Going from `CN1CCN(C(C(=O)N2CCC(N3CCN([C@H]4CCN(C(=O)c5cc(C(F)(F)F)cc(C(F)(F)F)c5)[C@H](Cc5ccccc5)C4)CC3)C2)c2ccccc2)CC1` (stereo partly shown) [Compound 105] to `O=C(CN1CCOCC1)N1CCC(N2CCN([C@H]3CCN(C(=O)c4cc(C(F)(F)F)cc(C(F)(F)F)c4)[C@H](Cc4ccccc4)C3)CC2)C1` (stereo partly shown) [Compound 197], the IC50 falls from 63.1 nM to 25.1 nM (2.5-fold).

Compared with `O=C(c1cc(C(F)(F)F)cc(C(F)(F)F)c1)N1CC[C@H](N2CCN([C@H]3CCNC3)CC2)C[C@H]1Cc1ccccc1` [Compound 148], `O=C(c1cc(C(F)(F)F)cc(C(F)(F)F)c1)N1CC[C@H](N2CCN([C@@H]3CCNC3)CC2)C[C@H]1Cc1ccccc1` [Compound 149] is 1.6-fold lower in IC50: 63.1 nM for the first, 39.8 nM for the second.

Going from `CN(C)CCN1CCC[C@H]1C(=O)N1CCC(N2CCN([C@H]3CCN(C(=O)c4cc(C(F)(F)F)cc(C(F)(F)F)c4)[C@H](Cc4ccccc4)C3)CC2)C1` (stereo partly shown) [Compound 185] to `CC(=O)N1CCC[C@H]1C(=O)N1CCC(N2CCN([C@H]3CCN(C(=O)c4cc(C(F)(F)F)cc(C(F)(F)F)c4)[C@H](Cc4ccccc4)C3)CC2)C1` (stereo partly shown) [Compound 186], the IC50 rises from 50.1 nM to 100 nM (2-fold).

Compared with `O=C(CN1CCNCC1)N1CCC(N2CCN([C@H]3CCN(C(=O)c4cc(C(F)(F)F)cc(C(F)(F)F)c4)[C@H](Cc4ccccc4)C3)CC2)C1` (stereo partly shown) [Compound 201], `O=C(C1CCCNC1)N1CCC(N2CCN([C@H]3CCN(C(=O)c4cc(C(F)(F)F)cc(C(F)(F)F)c4)[C@H](Cc4ccccc4)C3)CC2)C1` (stereo partly shown) [Compound 240] is 1.6-fold lower in IC50: 50.1 nM for the first, 31.6 nM for the second.
